Measured values from patent publication US4657924A, “Nafazatrom as a lipoxygenase inhibitor” (priority 1983, dated 1987).

Legend:
[1] = tested on: Lipoxygenase (leukotriene B4 biosynthesis in human PMN leucocytes); assay: Lipoxygenase inhibition: inhibition of leukotriene B4 biosynthesis in human PMN leucocytes; assay type: cell-based
Procedure: The human PMN leucocytes (95%) used in the present example were obtained from heparinized complete blood by dextran sedimentation and subsequent density gradient separation (Ficoll-Paque) (compare A. Boyum, Scand. J. Immunol., 5, Suppl. 5, 9, 1976).
2×10^7 cells/ml were suspended in Dulbecco phosphate buffer containing Ca^2+ and were incubated with radioactively labelled arachidonic acid and the calcium ionophor A 23187 in the presence or absence of lipoxygenase inhibitor. After 15 minutes, the labelled lipoxygenase products were extracted from the acidified incubation medium and were separated by thin layer chromatography using a mobile phase mixture suitable for the leukotrienes (5-HETE-LTB4) (compare B. Jakschik et al., Biochem.Biophys.Res.Commun., 102, 624, 1981).
The distribution of the activity amongst the various metabolites was measured by a thin layer scanner. It is a measure of the lipoxygenase-inhibiting action of a test substance at a certain concentration.
The lipoxygenase metabolites were also additionally determined independently by means of high pressure liquid chromatography. This method enables the endogenous arachidonic acid metabolism to be studied with the aid of UV detection of the leukotrienes. In this method, the cells were treated as described above, with the exception that no radioactively labelled arachidonic acid was added exogenously. The high pressure liquid chromatography was carried out on Lichrosorb RP-18 (5 μm) columns. The mobile phase was methanol/water/glacial acetic acid 69/31/0.01. The flow rate was 1 ml/minute. Leukotriene B4 was determined at 232 nm, in each case by means of UV absorption.

[2] = tested on: disorders in cardiac rhythm following coronary ligature; assay: Coronary artery ligation in rats: disorders in cardiac rhythm; assay type: in vivo, rat (Wistar); settings: for Duration of VF (seconds), early / Duration of VT (seconds), early / Extrasystoles %, early: 0-10 minutes; for Duration of VF (seconds), late / Duration of VT (seconds), late / Extrasystoles %, late: 2-4 hours
From the text: (§1) Ligation of the left coronary artery of the rat heart and the disorders in cardiac rhythm which thereby occur form a relatively simple model for investigating substances having antiarrhythmic actions and effects on the developing myocardial ischaemia (Clark et al., J. Pharmacol. Meth. 3, 357, 1980). The effects of nafazatrom on antiarrhythmic and antiischaemic properties in conscious rats was investigated in this model. Particular importance was placed on the severity and quantity of disorders in cardiac rhythm which occurred.
(§2) Male Wistar rats (250-350 g) were superficially anaesthetized with ether and investigated for rhythm disorders. Animals with rhythm abnormalities before the start of the experiment were excluded. In acute surgery, the animals were again anaesthetized with ether. In the lateral dorsal position, the thorax was opened somewhat to the left alongside the central line and the heart was exteriorized. Close below the left heart auricle, a silk ligature (3-0) was looped through the muscle of the left heart under the anterior coronary artery. Animals which developed rhythm disorders during this procedure were excluded. The left coronary artery was ligatured by the method described by Selye et al. (Angiology 11, 398, 1960), the heart was returned to the thorax and the wound was rapidly closed with thread. Since the thorax had not been opened for longer than about 45 seconds, artificial respiration of the animals was unnecessary. The operation mortality was between 25 and 40% within the first hours, and in particular myocardial haemorrhages, rhythm disorders with ventricular fibrillation, and massive cardiac infractions occurred. In a sham-operatedgroup, the same experimental conditions were investigated, with the exception that the coronary artery remained open. Shortly after the ligature had been made, early rhythm disorders were observed, which were accompanied in some cases (untreated) with ventricular fibrillations. In most cases, this ventricular fibrillation spontaneously turned into uniform sinus rhythm of heart contraction. The disorders in cardiac rhythm were evaluated by the plan described by Clark (see above). Ventricular tachycardia was defined as the result of more than 10 successive rhythm disorders with extrasystoles. Electrocardiographic changes included a rise in the ST segment, a drop in the Q waves and a rise in the QT interval. The total number of ectopic activity in each individual animal was determined by counting the ventricular extrasystoles, including tachycardia and fibrillations.
(§3) Three groups were investigated: group I received the diluent (1% strength aqueous Tylose suspension, that is to say methylhydroxyethyl-cellulose) twice daily perorally (0.5 ml/kg) for 10 days and by the same administration and in the same amount, after coronary ligature, for a further 20 days; group II was pretreated with the diluent for 10 days (0.5 ml/kg) and was treated with 30 or 100 mg/kg of nafazatrom (in each case suspended in 0.5 ml/kg of 1% strength Tylose suspension) twice daily perorally for 20 days, after coronary ligature (the first nafazatrom administration was effected immediately after the coronary ligature); group III received the above oral doses of nafazatrom in the course of 10 days before the ligature, and the diluent Tylose suspension for 10 days after the coronary occlusion had been effected. The sham-operated animals remained untreated. The peripheral ECG in the extremities was determined in lead II, and in particular, as a control before the start of treatment, shortly before and during coronary ligature, 10 minutes after coronary ligature had been effected, and--after renewed ether anaesthesia-- between the 2nd and 4th hour after coronary occlusion. Each time, the animals were superficially anaesthetized again with ether when the ECG was recorded. At the end of the treatment period, a last ECG was recorded shortly before the animals were sacrificed. […]

leucocytes = assay: Leucocyte stickiness in hamster cheek pouch venules; assay type: in vivo, Syrian golden hamster; settings: intraarterial, 1.0 mg/kg
Procedure: The number of leucocytes counted will be greater, the lower the stickiness of the cells. Male Syrian golden hamsters (80-100 g) were anaesthetized with Nembutal (i.p.; 60 mg/kg). After insertion of a PE 10 catheter into the a.femoralis, the animal was laid on a Duling dissecting platform (MVR 5, 423 (1973)) and the right check pouch was withdrawn by inserting a Q-Tip. It was carefully drawn into the envisaged part of the platform, stretched and fixed. From the start of the dissection, 5 ml/minute of Superfusat flowed over the prepared cheek pouch. The temperature of the solution is 36° C. While treating the vessels with care, the upper layer tissue was separated longitudinally and folded back to the side. Under about 200-fold magnification, an area of about 1 cm^2 of connective tissue was carefully exposed. The animal was placed on the object stand of a microscope, together with the dissecting platform. A thermocouple was inserted into the left cheek pouch. The body temperature of the animal was thus monitored and kept at ±0.3° C. with the aid of an IR lamp (250 watt). The leucocyte stickiness was measured at about 500-fold magnification. A venule (30-40 μm .phi.) was selected in the exposed area. The number of leucocytes per unit time (minutes) which migrate past a certain section of this vessel was counted.

[3] = tested on: hydroperoxidase portion of cyclooxygenase; settings: T. E. Eling et al., 1982; cited from earlier work
[4] = tested on: v.jugularis, a.carotis and a.femoralis; settings: Seuter et al., 1979; cited from earlier work
[5] = tested on: cardiac infarction following ligation of the left coronary artery; assay: Coronary artery ligation in rats: cardiac infarction size and total mortality; assay type: in vivo, rat (Wistar); settings: for Total mortality % / Infarction size, % of total heart: peroral; for reduction of infarction size: treatment after coronary ligature
From the text: as §1, §2, §3

[6] = group II, after-treatment 30 mg/kg, 2 × daily, 15 animals
[7] = group II, after-treatment 30 mg/kg, 2 × daily, 9 animals
[8] = group II, after-treatment 100 mg/kg, 2 × daily, 18 animals
[9] = group III, pre-treatment 30 mg/kg, 10 days, 12 animals
[10] = group III, pre-treatment 30 mg/kg, 10 days, 10 animals
[11] = group III, pre-treatment 100 mg/kg, 10 days, 16 animals
[12] = group III, pre-treatment 100 mg/kg, 10 days, 11 animals

In the case of CC1=NN(CCOc2ccc3ccccc3c2)C(=O)C1 [nafazatrom, 3-methyl-1-[2-(2-naphthyloxy)-ethyl]-2-pyrazolin-5-one], the inhibition at 1 µg/mL ([1]; Homo sapiens, Leucocyte, 1 ug/ml, read-out: Inhibition in % in comparison with the control (leukotriene B4 biosynthesis)) is reported as 30%, the inhibition at 3 µg/mL ([1]; Homo sapiens, Leucocyte, 3 ug/ml, read-out: Inhibition in % in comparison with the control (leukotriene B4 biosynthesis)) is reported as 75% and the inhibition at 5 µg/mL ([1]; Homo sapiens, Leucocyte, 5 ug/ml, read-out: Inhibition in % in comparison with the control (leukotriene B4 biosynthesis)) is reported as 90%. For the same molecule, the inhibition at 10 µg/mL ([1]; Homo sapiens, Leucocyte, 10 ug/ml, read-out: Inhibition in % in comparison with the control (leukotriene B4 biosynthesis)) was 100%, the “concentration range of inhibition of LTB4 biosynthesis” value ([1]; as a function of the concentration) was 1 to 10 µg/mL and the “irregularities in comparison with the control animals” value ([2]; early (0-10 minutes) and late phase (2-4 hours)) was “significantly fewer irregularities”. The “Duration of VF (seconds), early” value [2, 6] was 65 s, the “Duration of VT (seconds), early” value [2, 6] was 72 s and the “Extrasystoles %, early” value [2, 6] was 94%. For the same molecule, the “Duration of VF (seconds), late” value [2, 7] was 0 s, the “Duration of VT (seconds), late” value [2, 7] was 4 s and the “Extrasystoles %, late” value [2, 7] was 6%. The “Duration of VF (seconds), early” value [2, 8] was 68 s, the “Duration of VT (seconds), early” value [2, 8] was 60 s and the “Extrasystoles %, early” value [2, 8] was 90%. For the same molecule, the “Duration of VF (seconds), late” value [2, 8] was 0 s, the “Duration of VT (seconds), late” value [2, 8] was 0 s and the “Extrasystoles %, late” value [2, 8] was 0%. For the same molecule, the “Duration of VF (seconds), early” value [2, 9] was 5 s, the “Duration of VT (seconds), early” value [2, 9] was 9 s and the “Extrasystoles %, early” value [2, 9] was 34%. For the same molecule, the “Duration of VF (seconds), late” value [2, 10] was 11 s, the “Duration of VT (seconds), late” value [2, 10] was 10 s and the “Extrasystoles %, late” value [2, 10] was 25%. For the same molecule, the “Duration of VF (seconds), early” value [2, 11] was 0 s, the “Duration of VT (seconds), early” value [2, 11] was 13 s and the “Extrasystoles %, early” value [2, 11] was 25%. The “Duration of VF (seconds), late” value [2, 12] was 6 s, the “Duration of VT (seconds), late” value [2, 12] was 10 s and the “Extrasystoles %, late” value [2, 12] was 4%. For the same molecule, the “prevention of rhythm disorders” value ([2]; pre-treatment of 100 mg/kg) was “prevent almost all the rhythm disorders”, the duration of action (leucocytes) was “about 60 minutes” and the “increase in the number of leucocytes” value (leucocytes) was 60-100%. The “action on hydroperoxidase portion of cyclooxygenase; conversion of arachidonic acid into PGH2” value [3] was “acts as a reducing cofactor of the hydroperoxidase portion of cyclooxygenase and accelerates the conversion of arachidonic acid into PGH2”, the antithrombotic effectiveness [4] was “effective arterially and venously” and the “total mortality” value ([5]; after-treated with 30 mg/kg) was 22%. The “total mortality” value ([5]; after-treated with 100 mg/kg) was 12%, the “infarctions in comparison with the control animals treated only with Tylose” value ([5]; both groups (before or after coronary ligature)) was “significantly smaller” and the Total mortality % ([5]; group II, after-treatment 30 mg/kg, 2 × daily, 20 days) was 24%. For the same molecule, the “Infarction size, % of total heart” value ([5]; group II, after-treatment 30 mg/kg, 2 × daily, 20 days, 15 animals) was 31.5%, the Total mortality % ([5]; group II, after-treatment 100 mg/kg, 2 × daily, 20 days) was 22% and the “Infarction size, % of total heart” value ([5]; group II, after-treatment 100 mg/kg, 2 × daily, 20 days, 18 animals) was 26.7%. For the same molecule, the Total mortality % ([5]; group III, pre-treatment 30 mg/kg, 10 days) was 22%, the “Infarction size, % of total heart” value [5, 9] was 28.0% and the Total mortality % ([5]; group III, pre-treatment 100 mg/kg, 10 days) was 12%. The “Infarction size, % of total heart” value [5, 11] was 22.7%, the reduction of infarction ([5]; pre-treatment 30 mg/kg) was 36% and the reduction of infarction ([5]; pre-treatment 100 mg/kg) was 48%. The “reduction of infarction size” value ([5]; 30 mg/kg) was 28% and the “reduction of infarction size” value ([5]; 100 mg/kg) was 39%.
